Test results from ChEMBL document CHEMBL1781952, “Hippolides A-H, acyclic manoalide derivatives from the marine sponge Hippospongia lachne” (J Nat Prod, 2011).

Columns and labels:
[1] = target: Protein kinase C alpha type (Homo sapiens, UniProt P17252); test: Binding affinity at PKCalpha after 1 hr by luminescent kinase assay
[2] = tested on: HCT-116; test: Cytotoxicity against human HCT116 cells after 48 hrs by MTT assay; format: functional, cell-based; settings: HCT-116, 48 h
[3] = target: T1, Tyrosine-protein phosphatase non-receptor type 1 (Homo sapiens, UniProt P18031); test: Inhibition of recombinant PTP1B catalytic domain using pNPP as substrate assessed as pNP release
T1 sequence (P18031 whole entry): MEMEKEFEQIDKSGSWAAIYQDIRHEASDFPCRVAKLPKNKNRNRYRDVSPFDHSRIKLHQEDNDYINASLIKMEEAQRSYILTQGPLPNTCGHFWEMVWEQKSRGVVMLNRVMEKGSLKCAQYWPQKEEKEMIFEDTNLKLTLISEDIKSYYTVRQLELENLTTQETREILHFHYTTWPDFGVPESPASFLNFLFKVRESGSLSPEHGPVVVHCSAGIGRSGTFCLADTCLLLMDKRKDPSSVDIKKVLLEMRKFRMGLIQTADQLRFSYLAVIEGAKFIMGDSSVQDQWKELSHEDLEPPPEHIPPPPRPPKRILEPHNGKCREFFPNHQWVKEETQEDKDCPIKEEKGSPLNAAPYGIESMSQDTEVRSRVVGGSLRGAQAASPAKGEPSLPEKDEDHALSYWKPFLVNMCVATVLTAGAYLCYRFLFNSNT

[4] = tested on: A549; test: Cytotoxicity against human A549 cells after 48 hrs by MTT assay; format: functional, cell-based; settings: A549, 48 h
[5] = tested on: HeLa; test: Cytotoxicity against human HeLa cells after 48 hrs by MTT assay; format: functional, cell-based
[6] = target: Protein kinase C gamma type (Homo sapiens, UniProt P05129); test: Binding affinity at PKCgamma after 1 hr by luminescent kinase assay

Row | SMILES | IC50 [1] | IC50 [2] | IC50 [3] | IC50 [4] | IC50 [5] | IC50 [6]
1 | CC(C)=CCC/C(C)=C/CC/C(C)=C/CC/C(=C\C[C@H]1OC(=O)C=C1CO)CO [HIPPOLIDE E] | 40.3 µM | – | – | – | – | –
2 | CO[C@H]1O[C@@H]([C@@H]2CC(=O)NC2=O)CC=C1CC/C=C(\C)CC/C=C(\C)CCC=C(C)C [HIPPOLIDE B] | – | 35.1 µM | 39.7 µM | – | – | –
3 | CC(C)=CCC/C(C)=C/CC/C(C)=C/CCC1=CC[C@H]([C@@H]2CC(=O)NC2=O)O[C@@H]1O [HIPPOLIDE A] | – | 9.78 µM | 23.8 µM | 0.0522 µM | 0.048 µM | 62 µM
